# Columns and labels:
# A-549 = assay: MTT assay; assay type: cell-based, human
# Protocol: (§1) The antiproliferative activity of aromatic oligosulfides 1–6 was determined against human cell lines, including colon carcinoma HCT-116, breast adenocarcinoma MCF-7, lung adenocarcinoma A-549, colorectal carcinoma SW-480, and non-tumourigenic WI-38, using the MTT assay (Table 4). […] However, some selectivity for cancer cells was evident and the IC50 values for non-tumourigenic cells were slightly higher for compounds 1 and 2.
# (§2) Cell survival was determined by the MTT [3-(4,5-[…])-2,5-diphenyl tetrazolium bromide] assay by Niks method with small modifications. HCT-116 (colon carcinoma), MCF-7 (breast adenocarcinoma), A-549 (lung adenocarcinoma) and SW-480 (colorectal carcinoma) human cancer cell lines and WI-38 (cell line composed of fibroblasts) were cultured in DMEM (PanEco, Moscow, Russia) with Glutamin (PanEco, Moscow, Russia) and antibiotics (PanEco, Moscow, Russia) in CO2 (5%) at 37 °C. The compounds were dissolved (20 mM) in DMSO and then added to the cell culture medium at the required concentration with a maximum DMSO content of 0.5 v/v%. At these concentrations, DMSO had no effect on cell viability, as was shown in the control experiments. Cells were cultured in 96-well plates (7000 cells/well) and treated with various concentrations (from […]) of the test compounds as well as doxorubicin at 37 °C for 72 h. Cell viability was determined using the MTT assay, which quantified dehydrogenase activity. Then, the cells were incubated at 37 °C for 50 min with a solution of MTT ([…], 5 mg × mL^−1) (Sigma-Aldrich, St. Louis, MO, USA). The supernatant was discarded, and cells were dissolved in DMSO ([…]). The optical density of the solution was measured at 570 nm with use of a multiwall-plate reader (Anthos Zenyth 2000rt, Biochrom, Cambridge, UK), and the percentage of surviving cells was calculated from the absorbance of untreated cells. Each experiment was repeated at least three times, and each concentration was tested in at least three replicates. Data were presented as a graph of the percentage of surviving cells versus the concentration of the test substances. The meanings of 50% inhibition concentration (IC50) with standard deviation were calculated using GraphPad Prism Version 5.03 for Windows (GraphPad Software, San Diego, CA, USA).
# HCT-116 [1] = assay: MTT assay; assay type: cell-based, human
# Protocol: as §1, §2
# MCF-7 = assay: MTT assay; assay type: cell-based, human
# Protocol: as §1, §2
# SW-480 = assay: MTT assay; assay type: cell-based, human
# Protocol: as §1, §2
# HCT-116 [2] = assay: Annexin V/Dead Cell assay; assay type: cell-based, human; details: HCT-116, 2 × IC50, 24 h
# Text: Apoptosis or programmed cell death is an important and active regulatory pathway of cell growth and proliferation. Cells respond to specific induction signals by initiating intracellular processes that result in characteristic physiological changes. Among these are externalization of phosphatidylserine (PS) to the cell surface, cleavage and degradation of specific cellular proteins, compaction and fragmentation of nuclear chromatin, and loss of membrane integrity. Phosphatidylserine (PS) is normally located in the inner part of the cell membrane. In the initial stage of apoptosis, the PS residues which translocated to the extracellular are detected by Annexin V, which is a calcium-dependent phospholipid-binding protein with a high affinity for PS. Annexin V flow cytometric assay was used to evaluate the compounds’ ability to induce apoptosis and influence on cell death. HCT-116 colon carcinoma and A-549 lung adenocarcinoma cells were treated by disulfides 2 and 3.
# HCT-116 (colon carcinoma) and A-549 (lung carcinoma) cells (1 × 10^6) were seeded in a six-well plate and were incubated for 24 h. […] After incubation, the cells were harvested by trypsinization, precipitated by centrifugation (3000 rpm), washed with PBS, recentrifuged, and the buffer was removed. DMEM was added to achieve a cell concentration of 400–1000 cells/µL. The Muse Annexin V & Dead Cell Kit reagent (100 µL) was added to the cells and […] for 20 min at room temperature in the dark. The results were recorded on a Muse Cell Analyzer flow cytometer (Merck, Rahway, NJ, USA).
# [3] = Fe2+ chelating activity; read-out: FIC, IC50 (EDTA activity); cited from earlier work
smiles,measurement,setting,value
"COc1cccc2c1C(=O)c1c(O)c3c(c(O)c1C2=O)C[C@@](O)(C(=O)CO)C[C@@H]3O[C@H]1C[C@H](N)[C@H](O)[C@H](C)O1 [doxorubicine, doxorubicin, reference compound]",IC50,"A-549; Homo sapiens, A549, 72 h",0.24 ± 0.02 µM
same,IC50,"HCT-116 [1]; Homo sapiens, HCT-116, 72 h",0.65 ± 0.05 µM
same,IC50,"MCF-7; Homo sapiens, MCF7, 72 h",0.28 ± 0.03 µM
same,IC50,"SW-480; Homo sapiens, SW480, 72 h",0.45 ± 0.06 µM
same,total apoptotic cells,HCT-116 [2],17.9%
"N.N.[Cl][Pt][Cl] [cisplatin, reference compound]",IC50,A-549; 72 h,20.1 ± 5.6 µM
same,IC50,HCT-116 [1]; 72 h,9.1 ± 2.3 µM
same,IC50,MCF-7; 72 h,> 30 µM
same,IC50,SW-480; 72 h,17.6 ± 5.4 µM
"O=C([O-])CN(CCN(CC(=O)[O-])CC(=O)O)CC(=O)O.[Na+].[Na+] [EDTA, reference compound]",IC50,[3],380 ± 30 µM
